Laboratory results reported in publication PMC6265919, “Acylated Aminooligosaccharides with Inhibitory Effects against α-Amylase from Streptomyces sp. HO1518” (Marine Drugs, 2018).

Target: T1, porcine pancreatic α-amylase (PPA) (Sus scrofa, UniProt P00690)
T1 sequence (P00690 16-511): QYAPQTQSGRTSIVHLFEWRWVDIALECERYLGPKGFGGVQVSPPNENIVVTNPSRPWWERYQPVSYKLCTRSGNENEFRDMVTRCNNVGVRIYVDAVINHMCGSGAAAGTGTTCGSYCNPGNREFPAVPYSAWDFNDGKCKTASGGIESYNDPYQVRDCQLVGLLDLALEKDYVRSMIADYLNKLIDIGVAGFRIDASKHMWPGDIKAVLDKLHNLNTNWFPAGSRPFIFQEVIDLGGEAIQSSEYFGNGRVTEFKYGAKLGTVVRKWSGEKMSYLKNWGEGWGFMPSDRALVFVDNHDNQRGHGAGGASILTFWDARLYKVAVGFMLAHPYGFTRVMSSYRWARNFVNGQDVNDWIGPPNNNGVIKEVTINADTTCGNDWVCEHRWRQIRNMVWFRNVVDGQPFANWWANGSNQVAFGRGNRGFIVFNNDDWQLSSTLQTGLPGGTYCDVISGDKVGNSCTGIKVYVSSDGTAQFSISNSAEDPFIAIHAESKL
Assay: Porcine pancreatic α-amylase (PPA) inhibitory activity assay (starch-iodine)
Type: biochemical
Conditions: PPA 50 U/mL, 0.2% soluble starch, phosphate buffer pH 6.9, 20 °C, 30 min; averages of three replicates
Description: Porcine pancreatic α-amylase inhibitory (PPA) inhibitory activity assay was carried out reference to the procedure previously described. In brief, 5 μL of enzyme solution (PPA, 50 U/mL) and 10-fold series diluted test sample solution (inhibitors, dissolved in distilled water) were mixed and pre-incubated. 100 μL of 0.2% soluble starch (substrate, dissolved in 100 mM phosphate buffer, pH 6.9) was added and incubated at 20 °C for 30 min. The reaction was terminated by the addition of 20 μL 1 M HCl. The remaining starch was quantified by using the following method: 100 μL of the reaction solution was mixed with 25 μL of Lugol’s iodine solution. The absorption was measured at 630 nm in the 96-well plates. […] The data were imported into GraphPad Prism version 5.0 (GraphPad Software, San Diego, CA, USA, www.graphpad.com) and the IC50 values were calculated by using a standard dose response curve fitting.

IC50 [nM]	Compound
693 ± 97	CC(=O)OC[C@H]1O[C@H](O[C@H]2[C@H](O)[C@@H](O)[C@@H](O[C@H]3[C@H](O)[C@@H](O)[C@@H](O[C@H]4[C@H](O)[C@@H](O)C(O)O[C@@H]4CO)O[C@@H]3CO)O[C@@H]2CO)[C@H](O)[C@@H](O)[C@@H]1O[C@H]1O[C@H](C)[C@@H](N[C@H]2C=C(CO)[C@@H](O)[C@H](O)[C@H]2O)[C@H](O)[C@H]1O (stereo partly drawn) [compound 3, D6-O-acetyl-acarviostatin I03]
625 ± 24	CCC(=O)OC[C@H]1O[C@H](O[C@H]2[C@H](O)[C@@H](O)[C@@H](O[C@H]3[C@H](O)[C@@H](O)[C@@H](O[C@H]4[C@H](O)[C@@H](O)C(O)O[C@@H]4CO)O[C@@H]3CO)O[C@@H]2CO)[C@H](O)[C@@H](O)[C@@H]1O[C@H]1O[C@H](C)[C@@H](N[C@H]2C=C(CO)[C@@H](O)[C@H](O)[C@H]2O)[C@H](O)[C@H]1O (stereo partly drawn) [compound 4, D6-O-propionyl-acarviostatin I03]

Second part, the molecule before the results:

Compound	IC50 [nM]
CC(=O)OC[C@H]1O[C@H](O[C@H]2[C@H](O)[C@@H](O)[C@@H](O[C@H]3[C@H](O)[C@@H](O)[C@@H](O[C@H]4[C@H](O)[C@@H](O)C(O)O[C@@H]4CO)O[C@@H]3CO)O[C@@H]2CO)[C@H](O)[C@@H](O)[C@@H]1O[C@H]1O[C@H](C)[C@@H](N[C@H]2C=C(CO)[C@@H](O[C@H]3O[C@H](CO)[C@@H](O[C@H]4O[C@H](C)[C@@H](N[C@H]5C=C(CO)[C@@H](O)[C@H](O)[C@H]5O)[C@H](O)[C@H]4O)[C@H](O)[C@H]3O)[C@H](O)[C@H]2O)[C@H](O)[C@H]1O (stereo partly drawn) [compound 1, D6-O-acetyl-acarviostatin II03]	29 ± 1
CC(O)CC(=O)OC[C@H]1O[C@H](O[C@H]2[C@H](O)[C@@H](O)[C@@H](O[C@H]3[C@H](O)[C@@H](O)[C@@H](O[C@H]4[C@H](O)[C@@H](O)C(O)O[C@@H]4CO)O[C@@H]3CO)O[C@@H]2CO)[C@H](O)[C@@H](O)[C@@H]1O[C@H]1O[C@H](C)[C@@H](N[C@H]2C=C(CO)[C@@H](O[C@H]3O[C@H](CO)[C@@H](O[C@H]4O[C@H](C)[C@@H](N[C@H]5C=C(CO)[C@@H](O)[C@H](O)[C@H]5O)[C@H](O)[C@H]4O)[C@H](O)[C@H]3O)[C@H](O)[C@H]2O)[C@H](O)[C@H]1O (stereo partly drawn) [compound 2, D6-O-β-hydroxybutyryl-acarviostatin II03]	49 ± 16
CC(O)CC(=O)OC[C@H]1O[C@H](O[C@H]2[C@H](O)[C@@H](O)[C@@H](O[C@H]3[C@H](O)[C@@H](O)[C@@H](O[C@H]4[C@H](O)[C@@H](O)C(O)O[C@@H]4CO)O[C@@H]3CO)O[C@@H]2CO)[C@H](O)[C@@H](O)[C@@H]1O[C@H]1O[C@H](C)[C@@H](N[C@H]2C=C(CO)[C@@H](O)[C@H](O)[C@H]2O)[C@H](O)[C@H]1O (stereo partly drawn) [compound 5, D6-O-β-hydroxybutyryl-acarviostatin I03]	495 ± 63
C[C@H]1O[C@H](O[C@H]2[C@H](O)[C@@H](O)[C@@H](O[C@H]3[C@H](O)[C@@H](O)[C@@H](O[C@H]4[C@H](O)[C@@H](O)[C@@H](O[C@H]5[C@H](O)[C@@H](O)C(O)O[C@@H]5CO)O[C@@H]4CO)O[C@@H]3CO)O[C@@H]2CO)[C@H](O)[C@@H](O)[C@@H]1N[C@H]1C=C(CO)[C@@H](O[C@H]2O[C@H](CO)[C@@H](O[C@H]3O[C@H](C)[C@@H](N[C@H]4C=C(CO)[C@@H](O)[C@H](O)[C@H]4O)[C@H](O)[C@H]3O)[C@H](O)[C@H]2O)[C@H](O)[C@H]1O (stereo partly drawn) [compound 6, acarviostatin II03]	29 ± 4
